“Also recorded” adds a separate entry of the source.
Columns and labels:
[1] = Enhancement activity of adjuvant in DHA composition on artificial skin (VitroSkin), color by colorimeter; conditions: for color quality (delta a*/delta b*, visual examination) in words: composition with DHA on artificial skin; for color enhancement activity on artificial skin (in words): adjuvant 0.5-2 wt.% in composition with DHA
Method: General procedure for in vitro testing: DHA, 2.5 weight percent, and 0.5 to 2.0 weight percent adjuvant were formulated into the base (as described in Table 1). About 20 mg of resulting composition was applied to VitroSkin® made available from IMS Company and applied in a circular pattern having a diameter around 2.4 cm. The artificial skin was pre-hydrated under 50% RH for 24 hours before use, and the skin was kept at a temperature of 35° C. under constant relative humidity (RH, 50%). Color development was evaluated with a colorimeter as defined below.
Enhancement activity of pyrrole-2-carboxylic acid was carried out on artificial skin when formulated in a ready-to-use composition with ingredients as described in Table 4 and color was detected and assessed with a colorimeter.

[2] = Enhancement activity of adjuvant in DHA/glycine solution, color change by colorimeter; conditions: adjuvant 0.5-2 wt.% in solution with DHA and glycine
Excerpt: A control solution was made as follows: Mixing vials were charged with 2.5 weight percent glycine, 2.5 percent by weight DHA and 0.2 M citric/citrate buffer solution to produce the desired control solution, pH 5.6. The balance of the control solutions was water. Compositions consistent with the invention were made as follows: about 0.5 to 2.0 weight percent adjuvant, 2.5 weight percent DHA and 2.5 weight percent glycine were combined, resulting in compositions consistent with this invention with water as the balance. The initial pH of the resulting adjuvant comprising solution was measured and adjusted with NaOH or citric acid, if necessary, to yield an adjuvant comprising solution, pH of about 5.6. The solutions were placed in a 35° C. oven and color change was assessed visually (by taking photos) and by measuring L*a*b* values utilizing a conventional colorimeter. L*a*b* values of the solutions were measured and assessed as set forth below.
Enhancement activity of pyrrole-2-carboxylic acid in solution was carried out on the solutions described in Table 2 and the color of the reaction system was detected and assessed with a colorimeter.
Delta L* was used to characterize color change whereby the larger Delta L* value reflects darker coloring. […] Pyrrole-2-carboxylic acid, therefore, is believed to catalyze the DHA/glycine Maillard reaction.

Structure (SMILES)	color quality (delta a*/delta b*, visual examination) in words [1]	color enhancement activity on artificial skin (in words) [1]	DHA enhancement activity / color enhancement in solution (in words) [2]	DHA enhancement activity / color enhancement in solution (in words) ([2]; listed as 1-H-indole-2-carboxylic acid)
O=C(CO)CO [DHA, 1,3-dihydroxy-2-propanone, reference compound]	yellowish			
Cn1cccc1C(=O)O [1-methyl-2-pyrrolecarboxylic acid]	more natural color via visual examination; also recorded: better than that of the control at all concentrations tested	color enhancement activity; also recorded: excellent DHA enhancer	excellent DHA enhancement activity	
COC(=O)c1ccc[nH]1 [methyl-2-pyrrole carboxylate]			surprisingly good color enhancement	
O=C(O)c1cc2ccccc2[nH]1 [1H-indole-2-carboxylic acid]			excellent color enhancement	excellent coloring properties
O=C(O)c1ccc[nH]1 [pyrrole-2-carboxylic acid]	longer lasting and more natural color	DHA color enhancement activity at all tested concentrations	significantly enhanced DHA activity at all concentrations tested	
CC(=O)c1cccn1C [2-acetyl-1-methylpyrrole]		color enhancement of artificial skin	surprisingly good color enhancement	
O=C(O)c1ccco1 [2-furoic acid]		color enhancement of artificial skin		
CC(=O)c1ccc[nH]1 [2-acetylpyrrole]		color enhancement of artificial skin	surprisingly good color enhancement	
CC(=O)c1ccco1 [2-acetylfuran]		color enhancement of artificial skin		

From patent US8398959B2, “Compositions and methods for imparting a sunless tan with functionalized adjuvants” (Conopco, Inc., priority 2010, dated 2013)
